Data reported in US20250127735A1, “NOVEL COMPOSITION COMPRISING N-ACETYLCYSTEINE FOR OVERCOMING THE ADVERSE EFFECTS OF A CHEMOTHERAPY” (PRONUTRI, priority 2022, published 2025).
Entries after “also recorded” stand apart in the source; their conditions may differ.

What was measured:
[1] = system: Piezo2, CaVα2δ-1 and ARNT2 expression; assay: Reporter gene expression in vivo in the animal exposed to a chemotherapy protocol; details: animal exposed to a chemotherapy protocol (not shown)
[2] = system: Arnt2, Piezo 2 and CaVα2δ-1 gene expression; assay: qPCR of reporter genes in primary cultured DRG neurons exposed to cisplatin plus test molecules; assay type: cell-based, mouse; details: for effect on Piezo2, CaVα2δ-1 and ARNT2 expression, molecule taken alone: ex vivo primary cultured neurons, 24 h exposure to 1.25 μg/ml cisplatin (FIGS. 5-9)
Protocol: Treatment of the DRGs for 24 hours.
The effect of different molecules was tested on the expression of the same reporter genes, Pizeo 2, CaVα2δ-1 and ARNT2, using qPCR on primary cultured DRG neurons: • NAC • Beta-carotene (provitamin A) • Vitamin B12 • Luteolin (flavone)

DRG neurons = assay: Phase-contrast microscopy of cultured DRG neurons (morphology, neuronal networks); assay type: cell-based, mouse; details: for effect on the morphology of DRG neurons (cell or network level): molecule taken alone with cisplatin, micrographs not shown
[3] = system: tactile hypersensitivity triggered by cisplatin and paclitaxel; assay: Von Frey test of tactile hypersensitivity / chemo-induced neuropathy; assay type: in vivo, mouse
[4] = system: Piezo 2, CaVα2δ-1, ARNT2, Mafb and Kv1.4 gene expression; assay: qPCR of ion channel and transcription factor gene expression in mouse DRG primary culture treated with chemotherapy or oxidizing agent; assay type: cell-based
Protocol: Model: C57Bl6 females, 8 to 15 weeks old (sexually mature young adult mice)
The next morning, place 1.25 μg/ml cisplatin with the other molecules to be tested. […]
The RNA is extracted using Macherey-Nagel's “NucleoSpin RNA” kit.
Reverse transcriptions were performed following the protocol of the “SuperScript III Reverse Transcriptase” kit from Thermo Fisher Scientific, doubling the quantities of RNA and products used in order to obtain a higher concentration of cDNA.
The qPCRs were performed with undiluted cDNA obtained by reverse-transcription using 4.625 μL of cDNA and 5.375 μL of SyberROX PCR Mix (final 10 μL per well).
When the cycle threshold (CT)>35, the gene is considered to be not expressed in the cells analyzed.
To compare our results with and without treatment, we calculated the delta between the target gene and the reference gene (36B4) for each condition (e.g. dCTPIEZO2=CTPIEZO2−CT36B4=27.4−21.6=5.8 (control); 30.6-23.4=7.2 (cisplatin)).
We then calculated the delta delta CT of the target gene for the test condition and the control conditions (e.g. ddCTPIEZO2=dCTPIEZO2 (cisplatin)−[…]=7.2−5.8=1.4).
Finally, we determined the relative expression by calculating: 2^^−ddCT (e.g. for PIEZO2:2^^−ddCT=2^^−1.4=0.40).
The results correspond to the mean±SEM.
Mouse DRGs resulting from primary culture were treated with TBHP at 10 or 30 μM or with 1.25 μg/ml cisplatin (positive control) versus control (CTRL). mRNA expression was measured by qPCR and normalized with the 36B4 reference gene. The results correspond to the mean±SEM.

CC(=O)N[C@@H](CS)C(=O)O [NAC, N-acetylcysteine]
Piezo2, CaVα2δ-1 and ARNT2 expression levels in vivo [1]: allow Piezo2, CaVα2δ-1 and ARNT2 expression levels to rise
effect on Piezo2, CaVα2δ-1 and ARNT2 expression, molecule taken alone [2]: allow Piezo2, CaVα2δ-1 and ARNT2 expression levels to rise; also recorded: strongly limits this disruption in expression
effect on the morphology of DRG neurons (cell or network level) (DRG neurons): protective effect
chemo-induced neuropathies in a mouse model ([3]; mouse model): suppresses the resulting neuropathies
tactile hypersensitivity in response to mechanical stimuli (Von Frey test) ([3]; triggered by cisplatin and paclitaxel (not shown)): dramatically reduce tactile hypersensitivity

CC(C)(C)OO [TBHP, tert-butyl hydroperoxide]
expression of Kv1.4 (negative control) ([4]; TBHP at 10 or 30 μM (FIG. 4)): unaffected

CC1=C(/C=C/C(C)=C/C=C/C(C)=C/C=C/C=C(C)/C=C/C=C(C)/C=C/C2=C(C)CCCC2(C)C)C(C)(C)CCC1 [beta-carotene, Beta-carotene]
effect on Piezo2, CaVα2δ-1 and ARNT2 expression, molecule taken alone [2]: effect only at a 5 μM dose, and not at the lower doses tested (0.3, 1 and 3 μM)
toxicity to cultured neurons (DRG neurons; beta-carotene 5 μM (not shown)): slightly toxic

N.N.[Cl][Pt][Cl] [cisplatin]
relative expression of PIEZO2 (2^-ddCT) ([4]; cells treated with cisplatin compared to control cells normalized to 1, reference gene 36B4): 0.40
effects on Mafb mRNA expression ([4]; cisplatin 1.25 μg/ml, 0, 4, 8 and 16 h, normalized with 36B4 (FIG. 3)): not significant

O=c1cc(-c2ccc(O)c(O)c2)oc2cc(O)cc(O)c12 [luteolin, Luteolin]
effect on Piezo2, CaVα2δ-1 and ARNT2 expression, molecule taken alone [2]: does not appear to bring any improvement
effect on the morphology of DRG neurons (cell or network level) (DRG neurons): does not appear to bring any improvement

cobalamin [vitamin B12]
effect of vitamin B12 taken alone on gene expression ([2]; dose of 25 and 50 μM, 24 h, 1.25 μg/ml cisplatin (FIG. 7)): no effect
effect on Piezo2, CaVα2δ-1 and ARNT2 expression, molecule taken alone [2]: does not appear to have a conclusive chemoprotective effect
toxicity to neuronal morphology (DRG neurons; vitamin B12 at a dose of 50 μM (not shown)): some toxicity
